Key:
CHRM4 [1] = assay: QRT-PCR of CHRM4 in CtBP1/CtBP2 mutant Mouse Embryonic Fibroblasts; type: cell-based; conditions: 1 mM 2-DG
Description: FIG. 7C is a graph of normalized CHRM4 expression in MEFs bearing an inactivating mutation in heterozygous (−/+) or homozygous (−/−) state for both CtBP1 and CtBP2, assayed in the presence of absence of 2-DG.
To test whether CtBP was required for NRSF repression of chromosomal genes, expression levels of NRSF target genes were assayed in Mouse Embryonic Fibroblasts (MEFs) heterozygous or homozygous for deletions of both CtBP1 and CtBP2 (as described in Hildebrand & Soriano, 2002, Mol Cell Biol 22: 5296-307). In these experiments, wild type MEFs or MEFs heterozygous (CtBP1^−/+2^−/+) or homozygous (CtBP1^−/−2^−/−) for both CtBP1 and CtBP2 mutants were analyzed for CHRM4, Myelin Basic Protein (MBP) and hypoxanthine phosphoribosyl transferase (HPRT, as a non-NRSF regulated control) expression by QRT-PCR as described in Example 2. […] The expression levels of both genes were further elevated in CtBP1^−/−/2^−/− cells, consistent with a dose-responsive co-repressor function for CtBP.

[2] = type: in vivo; conditions: rats
Description: (§1) Dosage amount and interval of administration of compounds of the present invention can be adjusted individually to reduce seizure frequency, duration or intensity. For example, doses of 250 mg/kg 2-DG or less to higher as tolerated can be used to reduce seizure frequency and minimize toxicity. Doses of as much as 2000 mg/kg 2-DG are well tolerated in rats. […] A practitioner skilled in the art can adjust dosage in the range up to 500-600 mg/kg 2-DG and the timing of administration to produce prolonged anticonvulsant and antiepileptic effects. Efficacious dosage amounts can be adjusted to about 14 mg/kg 2-DG in children and 40 mg/kg 2-DG in adults, using therapeutic efficacy measurements (e.g., reduction in frequency or severity of seizures) as a criterion for establishing effective dosage levels.

[3] = system: NRSF target genes Sodium Type II (NaV1.2), BDNF, CHRM4; assay: QRT-PCR of chromosomal NRSF target genes in JTC-19 cells; type: cell-based, rat; conditions: 1 mM 2-DG for 24 hrs
Text: FIG. 5 are graphs showing the results of quantitative reverse-transcriptase-PCR experiments, wherein NaV1.2 is sodium type II (NaV1.2); BDNF is Brain Derived Neurotrophic Factor (BDNF) and CHRM4 is muscarinic acetylcholine receptor type 4 (CHRM4), all genes repressed by NRSE/NRSF, and actin (not an NRSF target).
Firefly luciferase measurements were normalized to co-transfected pRL-TK and expressed as fold repression (gal4 DBD/gal4-NRSF). Values are the average of at least three experiments performed in triplicate. Error bars indicate standard errors. […] In these experiments, cells were grown in the presence or absence of 1 mM 2-DG for 24 hrs, harvested and RNA subjected to QRT-PCR with primers to the NRSF target genes Sodium Type II (NaV1.2), Brain Derived Neurotrophic Factor (BDNF) and Muscarinic Acetylcholine Receptor Type 4 (CHRM4) or actin (not an NRSF target). Rat hippocampal cDNA was used to generate a standard curve and values plotted are microliter equivalents of hippocampal cDNA.

NRSF mediated repression = assay: gal4-NRSF luciferase reporter (G5-TATA-Luc) in JTC-19 cells; type: cell-based, rat; conditions: JTC-19 cells
CHRM4 [4] = assay: ChIP in JTC-19 cells grown with 2-DG or glucose, CHRM4; type: cell-based, rat
Text: To determine whether 2-DG mediated suppression of BDNF levels was associated with a decreased level of histone H3 Lysine^9 acetylation, hippocampii from 2-DG treated or control rats were crosslinked with 1% formaldehyde and subjected to chromatin immunoprecipitation assays (ChIPs), performed as in Roopra et al.(2004, Mol Cell 14: 727-38) with an antibody specific to acetylated H3-K9. The graphs shown in FIGS. 10A through 10C show the results of experiments in which the amount (in ng) of DNA associated with nucleosomes comprising modified or unmodified H3 histone proteins was detected for an endogenous, NRSE/NRSF-regulated gene (CHRM4) in JTC-19 cells grown in the presence of 2-DG or glucose. […] However, the amount of CtBP recruited to CHRM4, the NRSF target gene, increased 5-fold in the presence of 2-DG.

[5] = system: seizures evoked by kindling; assay: kindling model of epilepsy, afterdischarge (AD) threshold; type: in vivo, Sprague Dawley rats; set-up: change of AD threshold / duration of anticonvulsant effects after stopping 2-DG: dose or concentration left out as unconfirmed
Description: FIG. 2 illustrates the effects on after-discharge threshold of 2-DG in a […] model of epilepsy.
2-deoxy-D-glucose (2-DG), a potent inhibitor of glycolysis, was administered to rats experiencing epileptic seizures evoked by kindling, which induces seizures and long-term alterations in pathways of the hippocampal formation resembling human temporal lobe epilepsy. The effects of 2-DG on seizures evoked by kindling were examined in Sprague Dawley rats that received 2-DG and were compared to a saline-injected control group. Both groups initially received twice daily kindling stimulation (1 sec trains of 1 ms bipolar constant current pulses at 60 Hz) delivered to the perforant path input to the hippocampus according to established procedures, until 3 afterdischarges (ADs) accompanied by behavioral seizures were evoked. […]
as §1

TrkB = assay: QRT-PCR of hippocampal tissue from kindled rats, TrkB; type: in vivo, rat
Text: Values plotted are BDNF or TrkB expression over Actin using rat hippocampal cDNA from an untreated rat for a standard curve. Specifically, mRNA was extracted from hippocampus tissue from rats treated with 2-DG or untreated control rats subjected to kindling stimulation to mimic epilepsy. […] The levels of actin mRNA were not affected by 2-DG treatment. Importantly, the differences in expression of BDNF or TrkB in the absence or presence of 2DG were present after 5 ADs in association with a large difference in AD threshold between 2DG-treated and control rats (FIG. 3 lanes 5 versus 6 and 7 versus 8).

## O=CC[C@@H](O)[C@H](O)[C@H](O)CO [2-DG, 2-deoxy-D-glucose]
CHRM4 [1]; CtBP1-/+/2-/+ cells
  CHRM4 expression: repressed
CHRM4 [1]; CtBP1-/-/2-/- cells
  CHRM4 expression: not altered
[2]
  well tolerated dose: ≤ 2000 mg/kg
[3]
  expression of chromosomal NRSF target genes: repressed
NRSF mediated repression; 2-DG added to pyruvate and glucose
  repression by NRSF of luciferase reporter: augmented this effect
NRSF mediated repression; 16 hrs
  repression of luciferase reporter gene expression by NRSF (fold repression gal4 DBD/gal4-NRSF): increased repression
NRSF mediated repression; in the absence of glucose
  repression by NRSF of luciferase reporter: unable to further augment repression
NRSF mediated repression; in the presence of glucose
  repression by NRSF of luciferase reporter: increased repression
CHRM4 [4]; in the presence of 2-DG
  H3-Lys9 acetylation levels at the CHRM4 promoter: reduced
  amount of mono- and di-methyl K9: increased
  amount of unmodified (de-acetylated) H3K9: increased
  increase of amount of CtBP recruited to CHRM4: 5 fold
CHRM4 [4]; presence or absence of 2-DG
  amount of NRSF, G9a and SIN3 at NRSF target genes: does not change
[5]; rats, 2-DG 200 mg/kg subcutaneously 30 minutes prior to each kindling stimulation, maximum intensity of the stimulation protocol
  AD threshold reached with repeated stimulations: 1500 μramps
[5]; subcutaneous prior to each kindling stimulation that evoked AD, saline control showed a decrease
  change of AD threshold: gradual increase
[5]; twice daily for 3 months, twice daily stimulation continued
  duration of anticonvulsant effects after stopping 2-DG: approximately 8 weeks
TrkB; QRT-PCR, expression over actin, FIG. 3 lanes 3 versus 4
  hippocampal TrkB expression compared to control animals: significantly reduced
TrkB; after 5 ADs
  difference in expression of TrkB in absence or presence of 2DG: present
TrkB; rats that experienced 3 Class V seizures
  TrkB expression, 2DG-treated versus control rats: no difference in expression
